{
  "source": "patent US11896704B2",
  "about": "“Compounds useful for the treatment and/or care of the skin, hair, nails and/or mucous membranes” (LUBRIZOL ADVANCED MATERIALS, INC., priority 2017, dated 2024)",
  "key": {"[1]": {"test_system": "JARID1A gene", "assay": "JARID1A gene expression in synchronized human epidermal keratinocytes (HEKa), real time PCR arrays", "assay_type": "cell-based", "details": "0.5 mg/ml, one experiment", "procedure": "In Vitro Study of JARID1A Gene Expression in Synchronized Human Epidermal Keratinocytes from Adult (HEKa) Using Real Time PCR Arrays.\nHEKa cells (Life Technologies) are seeded at 3.0×10^5 cells/well in 12-well plates (2 wells per condition) and incubated in culture medium, Keratinocyte growth medium supplemented with Mix C39016-CaCl2 solution (Promocell). For synchronization, cells were subjected to two alternative cycles of 12 hours each at 37° C. in 5% CO2 humidified air (day mode) and 33° C. in 5% CO2 humidified air (night mode). 12 hours after starting synchronization, cells are incubated with the peptides at 0.5 mg/ml or (5 μg/ml) in culture medium, depending on the toxicity effects of each peptide (non-toxic conditions are selected). Cells treated with medium alone are used as basal condition.\nAt the end of synchronization, cell lysates are collected at two different times: 7:30 hour (early morning point) and 11:30 hour (midday point). Briefly, cells are lysed directly in the wells, and RNA is purified following the protocol described on the RNeasy™ Mini kit (Qiagen) according to the manufacture's protocol. After RNA elution, quantification and analysis of purity of RNA samples are performed with a nanodrop (Thermo). For each sample, 3 μg of high quality RNA is retrotranscribed with iScript Advanced™ (BioRad) in a final volume of 20 μl. Complete reaction mix is incubated in a thermal cycler (Eppendorf) at 42° C. for 30 minutes, and the reaction is stopped at 85° C. for 5 minutes. Complementary DNA is amplified by qPCR in a real-time PCR thermocycler (BioRad) using SYBR Green Supermix™ (BioRad) in the 96-well plate for use with SYBR® Green (BioRad). SYBR Green binds to double-stranded DNA molecules and emits fluorescence which is quantified, and the fluorescence intensity is proportional to the amount of the product in the PCR reaction. Cycling conditions in BioRad CFX96™ instrument are: 95° C. for 3 minutes, followed by 40 cycles of denaturing at 95° C. for 5 seconds, annealing and elongation at 60° C. for 30 seconds. GAPDH (Glyceraldehyde 3-phosphate dehydrogenase), TBP (TATA box binding protein) and HRPT1 (hypoxanthine phosphoribosyltransferase 1) are used as endogenous controls. Fold change relative to the expression of the sample genes and reference genes is calculated using normalized expression (AA(Ct)) method using CFX Manager Software™ (BioRad).\nFold induction of JARID1A gene at 7:30 hour with respect to basal conditions at 7:30 hour for the samples tested are shown in Table 7. The data for fold induction represent the value of one experiment."}, "[2]": {"test_system": "Phenion Full-Thickness Skin models", "assay": "Lipidomics profile (UHPLC-MS) in synchronized human full-thickness skin models", "assay_type": "cell-based", "details": "0.5 mg/ml, 48 hours of treatment, 7:30 h, one assay", "from_the_text": "Analysis of Lipidomics Profile in Synchronized Human Full-Thickness Skin Models. Lipidomic profile from human skin models can be assessed by measuring using an ultrahigh performance liquid chromatography-mass spectrometry (UHPLC-MS). The main objective of this experiment is to evaluate the lipidomic profile of synchronized human skin models after the treatment with the peptide […] (PEP-1, H-[SEQ ID. NO. 2]-NH2) in order to determine ceramide skin content and the PC-DHA/PC ratio. After arrival, the Phenion® Full-Thickness Skin models ([…]) are placed in Petri dishes (5 skin models per condition) according to the supplier's instructions in ALI medium ([…]). After 72 hours incubation at 37° C., 5% CO2, a synchronization protocol is initialized. For this purpose, skin models are subjected to two alternative cycles of 12 hours each at 37° C. in 5% CO2 humidified air (day mode) and 33° C. in 5% CO2 humidified air (night mode). Skin models are treated with the peptide […] (PEP-1, H-[SEQ ID. NO. 2]-NH2) at 0.5 mg/ml both in the above surface (50 μl of treatment) of the models and within the Petri-dish containing medium. Skin models treated with medium are used as a basal control condition. This treatment is […] hours in the same conditions. […] These values are calculated for one assay. […] These values are calculated for one assay."}},
  "data": [
    {"substance": "H-Phe-Trp-Met-Lys-Arg-Lys-Arg-Val-Pro-NH2 (H-FWMKRKRVP-NH2) [PEP-1]", "values": [
      {"measurement": "Fold induction with respect to Basal condition at 7:30h (%)", "setting": "[1]", "result": 212.39, "unit": "%"},
      {"measurement": "Ceramides amount (%)", "setting": "[2]; relative to basal condition 7:30 h", "result": 147.6, "unit": "%"},
      {"measurement": "Percentage PC-DHA/PC ratio (%)", "setting": "[2]; relative to basal conditions 7:30 h", "result": 120.2, "unit": "%"}
    ]}
  ]
}
